Several values for one entry are separate records, joined by “and”; a condition that tells them apart may be missing. Identical values can stand only once.
Tested on: OVCAR-5 complex spheroids with HUVEC/MSC, viability, % test/control
Assay: Anticancer human tumor OVCAR-5 cell line growth inhibition [AhR];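 also: spheroids exposed to compounds for 7 days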;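 as to viability, T/C: 100% = DMSO vehicle control wells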
Conditions: for viability, T/C: stronger effect = lower value
Description: Multicellular complex tumor spheroid response to aryl hydrocarbon receptor antagonists in combination with a variety of drugs and investigational agents in selected tumor cell lines
The current study was undertaken to assess response to aryl hydrocarbon receptor antagonists in combination with standard-of-care drugs and investigational agents in solid tumor complex spheroid models. Complex spheroids include a stromal component modeled by human endothelial cells (HUVEC) and fibroblasts modeled by human mesenchymal stem cells (MSCs). The concentration ranges selected for each drug and investigational agent were based upon clinically achievable concentrations if the clinical Cmax of the agent was known.
Compounds. The drugs and investigational agents: BAY 2416964 (NSC825713), GNF351 (NSC835774), CH-223191 (NSC835775), CPI-455 (NSC825282), aza-TdCyd (NSC777586), decitabine (NSC127716), belinostat (NSC758774), entinostat (NSC756642), pevonedistat (NSC761192), tazemetostat (NSC777109), talazoparib (NSC765396), olaparib (NSC753686), selinexor (NSC780203), nedisertib (M3814, NSC802822), bortezomib (NSC756655), venetoclax (NSC766270), doxorubicin (NSC123127), elimusertib (BAY189344, NSC800525), ceralasertib (AZD6738, NSC777638), TAK-243 (NSC785004), alisertib (NSC759677), etoposide (NSC141540), topotecan (NSC609699), eribulin (NSC707389), gemcitabine (NSC613327), carboplatin (NSC241240), cisplatin (NSC119875), and SN-38 (NSC673596) were obtained from the National Cancer Institute (NCI) Developmental Therapeutics Program Chemical Repository (32). The FDA-approved anticancer drug set is available from the Developmental Therapeutics Program at https://dtp.cancer.gov/organization/dscb/obtaining/available plates.htm. […] The stock solutions were prepared in dimethyl sulfoxide (DMSO, Sigma-Aldrich, St. Louis, MO, cat. D2650), except for the platinum compounds which were prepared in saline (Quality Biological, Gaithersburg, MD, cat. 114-055-101), at 800-fold the tested concentration and stored at -70 degrees C prior to their use. All drugs and investigational agents were tested over a range starting from a high concentration at or near the clinical Cmax and decreasing in half-log increments. If the clinical Cmax for an agent had not been determined, the highest concentration tested was 10 microM (Table 1).
Cell Culture. All cells were maintained in an incubator at 37 degrees C and 5% CO2 with 95% humidity. The PDC lines were cultured according to standard operating procedures established by the NCI PDMR (https://pdmr.cancer.gov). Briefly, all PDCs were thawed and cultured in Matrigel-coated flasks prepared with a working solution of 1X Ham's F-12 nutrient mix, without supplementation (Invitrogen, Waltham, MA, cat. 11765054), 100 U/mL penicillin-streptomycin (Invitrogen, cat. 15140122), and 2.5% Matrigel (Corning Inc., Corning, NY, cat. 354248) for the first three passages. All PDCs were cultured in complete DMEM/F-12 media containing advanced DMEM/F-12 (Invitrogen, cat. 12634028), 4.9% defined fetal bovine serum, heat inactivated (HyClone Laboratories Inc., Logan, UT, cat. SH30070.03HI), 389 ng/mL hydrocortisone (Sigma-Aldrich, cat. H4001), 9.7 ng/mL human EGF recombinant protein (Invitrogen, cat. PHG0313), 23.4 microg/mL adenine (Sigma-Aldrich, cat. A2786), 97.3 U/mL penicillin-streptomycin (Invitrogen, cat. 15140122), 1.9 mM L-glutamine (Invitrogen, cat. 25030081), and 9.7 microM Y-27632 dihydrochloride (Tocris Bioscience, Bristol, United Kingdom, cat. 1254). The PDCs were cultured in complete DMEM/F12 media without 10 microM Y-27632 dihydrochloride for at least two passages prior to the screen. The established cell lines NCI-H1341 and […] were cultured in DMEM/F-12, HEPES (Invitrogen, cat. 11330032), 5% defined fetal bovine serum (HyClone Laboratories Inc., cat. SH30070.03), ITS premix universal culture supplement [insulin (5 microg/mL), transferrin (5 microg/mL), and selenious acid (5 ng/mL)] […]

`COc1ccc([C@@H](O)c2cc(-c3ncnc4cc(N5CCOCC5)ccc34)c(F)cc2Cl)nn1` was tested, and the viability, T/C (compound 0.0316 µM) was 104% and 96.5% and 91.2%, the viability, T/C (compound 0.1 µM) was 101% and 96.4% and 97.7% and the viability, T/C (compound 0.316 µM) was 95.6% and 86.5% and 85%. For the same molecule, the viability, T/C (compound 1 µM) was 76.2% and 70.7% and 63.6%, the viability, T/C (compound 3.16 µM) was 48.4% and 41.8% and 38.3% and the viability, T/C (compound 10 µM) was 23% and 23.6% and 18.7%. For the same molecule, the IC50 (curve of compound) was 2930 nM and 2290 nM and 1850 nM.
`COc1cccc2c1C(=O)c1c(O)c3c(c(O)c1C2=O)CC(O)(C(=O)CO)CC3OC1CC(N)C(O)C(C)O1` (configuration not stated) was tested, and the viability, T/C (compound 0.0316 µM) was 66.2% and 56.6% and 74%, the viability, T/C (compound 0.1 µM) was 55.2% and 47.4% and 58.4% and the viability, T/C (compound 0.316 µM) was 49.6% and 41.8% and 46.6%. For the same molecule, the viability, T/C (compound 1 µM) was 28.7% and 24.1% and 25.6%, the viability, T/C (compound 3.16 µM) was 1.66% and 1.72% and 3.06% and the viability, T/C (compound 10 µM) was 1.46% and 1.1% and 1.11%. For the same molecule, the IC50 (curve of compound) was 316 nM and 114 nM and 223 nM.
For `Cc1cncc(-c2nc(NCCc3c[nH]c4ccccc34)c3ncn(C(C)C)c3n2)c1`, the viability, T/C (compound 0.1 µM) was 98.8% [middle of 20 runs], the viability, T/C (compound 0.316 µM) was 97.6% [middle of 19 runs] and the viability, T/C (compound 1 µM) was 92.7% [middle of 20 runs]. The viability, T/C (compound 3.16 µM) was 78.4% [middle of 20 runs] and the IC50 (compound alone, run of 08/16/2022) was 5.52 µM [middle of 22 runs].
`Cn1ncnc1C1c2n[nH]c(=O)c3cc(F)cc(c23)NC1c1ccc(F)cc1` (configuration not stated) was tested, and the viability, T/C (compound 0.000316 µM) was 104% and 100% and 102%, the viability, T/C (compound 0.001 µM) was 101% and 99% and 103% and the viability, T/C (compound 0.00316 µM) was 105% and 94.4% and 102%. The viability, T/C (compound 0.01 µM) was 98.9% and 92.5% and 97.6%, the viability, T/C (compound 0.0316 µM) was 101% and 92.3% and 97.3% and the viability, T/C (compound 0.1 µM) was 95.8% and 88% and 91.3%. The IC50 (curve of compound) was > 100 nM.
For `NS(=O)(=O)OCC1CC(n2ccc3c(NC4CCc5ccccc54)ncnc32)CC1O` (configuration not stated), the viability, T/C (compound 0.0316 µM) was 99.8% and 98.4% and 111%, the viability, T/C (compound 0.1 µM) was 74.2% and 68.1% and 75% and the viability, T/C (compound 0.316 µM) was 41.8% and 38.4% and 42.8%. The viability, T/C (compound 1 µM) was 21.2% and 16.9% and 19.1%, the viability, T/C (compound 3.16 µM) was 14.8% and 11.5% and 13% and the viability, T/C (compound 10 µM) was 11.8% and 9.65% and 11.2%. For the same molecule, the IC50 (curve of compound) was 235 nM and 197 nM.
`Nc1ccccc1NC(=O)c1ccc(CNC(=O)OCc2cccnc2)cc1` was tested, and the viability, T/C (compound 0.0316 µM) was 92.2% and 93.7% and 84.8%, the viability, T/C (compound 0.1 µM) was 90.3% and 88.7% and 81.2% and the viability, T/C (compound 0.316 µM) was 75.1% and 77.2% and 67.5%. The viability, T/C (compound 1 µM) was 53.3% and 52.3% and 33.1%, the viability, T/C (compound 3.16 µM) was 23.5% and 21.1% and 19.9% and the viability, T/C (compound 10 µM) was 9.94% and 8.4% and 7.9%. The IC50 (curve of compound) was 1080 nM and 1050 nM and 580 nM.
`Nc1ccn(C2OC(CO)C(O)C2(F)F)c(=O)n1` (configuration not stated) was tested, and the viability, T/C (compound 0.0316 µM) was 32.6% and 27.9% and 33.8%, the viability, T/C (compound 0.1 µM) was 30.9% and 25.9% and 30.5% and the viability, T/C (compound 0.316 µM) was 31.4% and 27.5% and 30.8%. For the same molecule, the viability, T/C (compound 1 µM) was 31.7% and 27.9% and 31.9%, the viability, T/C (compound 3.16 µM) was 32.3% and 29.7% and 33.2% and the viability, T/C (compound 10 µM) was 31.7% and 27.8% and 29.7%. For the same molecule, the IC50 (curve of compound) was < 31.6 nM.
With `Nc1ncn(C2CC(O)C(CO)O2)c(=O)n1` (configuration not stated) the viability, T/C (compound 0.00316 µM) was 101% and 99.1% and 104%, the viability, T/C (compound 0.01 µM) was 97.8% and 103% and 98.1% and the viability, T/C (compound 0.0316 µM) was 94% and 94.8% and 88.5%. For the same molecule, the viability, T/C (compound 0.1 µM) was 82.6% and 82.3% and 82%, the viability, T/C (compound 0.316 µM) was 76% and 70.8% and 68.8% and the viability, T/C (compound 1 µM) was 65% and 59.9% and 63.7%. The IC50 (curve of compound) was > 1000 nM.
With `Nc1ncn(C2CC(O)C(CO)S2)c(=O)n1` (configuration not stated) the viability, T/C (compound 0.000949 µM) was 103% and 101% and 99.6%, the viability, T/C (compound 0.003 µM) was 96.8% and 106% and 99.3% and the viability, T/C (compound 0.00949 µM) was 102% and 103% and 97.4%. For the same molecule, the viability, T/C (compound 0.03 µM) was 99.8% and 99.5% and 105%, the viability, T/C (compound 0.0949 µM) was 91.7% and 90.7% and 99% and the viability, T/C (compound 0.3 µM) was 83.8% and 77.6% and 83.7%. The IC50 (curve of compound) was > 300 nM.
With `O=C(C=Cc1cccc(S(=O)(=O)Nc2ccccc2)c1)NO` the viability, T/C (compound 0.0316 µM) was 94.1% and 97.8% and 90.4%, the viability, T/C (compound 0.1 µM) was 93.2% and 88% and 88.8% and the viability, T/C (compound 0.316 µM) was 76.5% and 73.4% and 70.6%. For the same molecule, the viability, T/C (compound 1 µM) was 59.4% and 55.6% and 52.8%, the viability, T/C (compound 3.16 µM) was 30.6% and 24.4% and 27.7% and the viability, T/C (compound 10 µM) was 7.78% and 5.16% and 5.95%. The IC50 (curve of compound) was 1410 nM and 1120 nM and 1110 nM.
In the case of `O=C(C=Cn1cnc(-c2cc(C(F)(F)F)cc(C(F)(F)F)c2)n1)NNc1cnccn1`, the viability, T/C (compound 0.00949 µM) is reported as 109% and 108% and 104%, the viability, T/C (compound 0.03 µM) is reported as 108% and 109% and 105% and the viability, T/C (compound 0.0949 µM) is reported as 101% and 99.5% and 96.1%. For the same molecule, the viability, T/C (compound 0.3 µM) was 85.9% and 76.1% and 78.1%, the viability, T/C (compound 0.949 µM) was 68.2% and 58.4% and 60.8% and the viability, T/C (compound 3 µM) was 47% and 42% and 40.6%. The IC50 (curve of compound) was 2560 nM and 1610 nM and 1710 nM.
For `O=C(c1cc(Cc2n[nH]c(=O)c3ccccc23)ccc1F)N1CCN(C(=O)C2CC2)CC1`, the viability, T/C (compound 0.0316 µM) was 98.3% and 103% and 100%, the viability, T/C (compound 0.1 µM) was 97.6% and 99% and 96.8% and the viability, T/C (compound 0.316 µM) was 92.4% and 97.2% and 96.1%. For the same molecule, the viability, T/C (compound 1 µM) was 93% and 93.2% and 98.6%, the viability, T/C (compound 3.16 µM) was 90.9% and 91% and 92.9% and the viability, T/C (compound 10 µM) was 83.3% and 83.5% and 84.2%. The IC50 (curve of compound) was > 10000 nM.

Reference: PubChem BioAssay AID1919015 (Molecular Pharmacology Branch, DTP, NCI, 2023)
